For data set [1] the following is noted: fresh or as designated.
In data set [2] the test system is rats. The note with it: subchronic.

In the case of `CCCCOP(=O)(OCCCC)Oc1ccccc1` [DBPP, dibutyl phenyl phosphate, reference compound], in data set [1], the “Independent Lab Cond.” value was found to be 0.008 μMHO/cm.
In data set [2] (bladder hyperplasia, rats), `CC(C)COP(=O)(OCC(C)C)OCC(C)C` [TIBP, triisobutyl phosphate] came in with an NOEL of 5000 ppm. Besides, the “Bladder Hyperplasia (finding)” value in data set [2] (in rats >5000 ppm) is recorded as “None observed”. Moreover, the “Independent Lab Cond.” value in data set [1] is 0.001 μMHO/cm.

These data come from patent USRE37101E, “Stabilized phosphate ester-based functional fluid compositions” (Solutia Inc., priority 1997, dated 2001).
